# Where “and” joins values, the source holds several entries; their conditions need not be identical. Equal values may be shown once. Marks after values point to notes of the source that are not given here.
# Key:
# T. mentagrophytes = experiment: Checkerboard combination testing of compound 8 with antifungals, FIC (Example 1); type: cell-based, Trichophyton mentagrophytes; conditions: n=6 isolates; for Additivity # isolates / Additivity isolates (%): 0.5≦FIC≦1.0; for No Interaction # isolates: 1.0<FIC≦4.0; for Synergy # isolates / Synergy isolates (%): FIC<0.5
# Experimental: (§1) This example describes the in vitro activity of combinations of compounds according to the present invention and antifungal agents against a collection of dermatophytic fungal pathogens. Antifungal susceptibility testing was adapted from the CLSI M38-A broth microdilution method for dermatophytes (NCCLS-M38-A2 2008). Combination testing was performed by checkerboard method (with compound 8 in combination with fluconazole, itraconazole or terbinafine). A total of 30 isolates of 5 different fungal species were tested in the combination test: 6 isolates each of Trichophyton tonsurans, Trichophyton rubrum, Epidermophyton floccosum, Trichophyton mentagrophytes and Microsporum canis. Clinical isolates were obtained by the Laboratory of Dr. M. Ghannoum at Case Western University.
# Synergy was assessed using the fractional inhibitory concentration (FIC), an interaction coefficient, with the following definitions: […]
# E. floccosum = experiment: as above; type: cell-based, Epidermophyton floccosum; conditions: for Additivity # isolates / Additivity isolates (%): 0.5≦FIC≦1.0
# Experimental: as §1
# Synergy was assessed using the fractional inhibitory concentration (FIC), an interaction coefficient, with the following definitions:
# The fold reduction of the itraconazole minimum inhibitory concentration (MIC) was also evaluated.
# T. rubrum = experiment: Checkerboard microdilution Compound 8 + fluconazole, FIC Index (Example 2); type: cell-based, Trichophyton rubrum; conditions: Compound 8 in combination with fluconazole, one value per strain (MRL #)
# Experimental: This example describes the in vitro activity of combinations of compounds according to the present invention and antifungal agents against clinical isolates of Trichophyton rubrum. Twenty clinical isolates Trichophyton rubrum, including 9 strains with elevated terbinafine MICs, taken from the culture collection of the Center for Medical Mycology, were tested.
# MIC testing was performed according to the modification of the CLSI M38-A2 standard for dermatophytes developed at the Center (CLSI. Reference Method for Broth Dilution Antifungal Susceptibility Testing of Filamentous Fungi; Approved Standard-Second Edition. CLSI document M38-A2 [ISBN 1-56238-668-9]. CLSI, 940 West Valley Road, Suite 1400, Wayne, Pa. 19087-1898 USA, 2008; Ghannoum M A, et al. Intra- and Interlaboratory Study of a Method for Testing the Antifungal Susceptibilities of Dermatophytes. 2004 J Clin Microbiol 42:(7): 2977-2979). Compound 8 and fluconazole were tested in combination using a checkerboard microdilution method. The interaction between Compound 8 and fluconazole was determined by FIC Index, or Fractional Inhibitory Concentration Index, which assigns a numerical value to the interaction of the two antifungals.
# M. canis = experiment: Checkerboard combination testing of compound 8 with antifungals, FIC (Example 1); type: cell-based, Microsporum canis; conditions: Compound 8 in combination with itraconazole, N=5 isolates
# [1] = Compound 8 in combination with fluconazole
# [2] = Compound 8 in combination with itraconazole
# [3] = Compound 8 in combination with fluconazole, n=6 isolates
# [4] = Compound 8 in combination with fluconazole, 1.0<FIC≦4.0, n=6 isolates
# [5] = Compound 8 in combination with itraconazole, n=6 isolates
# [6] = Compound 8 in combination with itraconazole, FIC<0.5, n=6 isolates
smiles,measurement,setting,value
O=C(Cc1ccc(CCCCc2ccccc2)cc1)NO [Compound 8],Additivity # isolates,T. mentagrophytes; [1],4
same,Additivity isolates (%),T. mentagrophytes; [1],(67%)
same,No Interaction # isolates,T. mentagrophytes; [1],0
same,Synergy # isolates,T. mentagrophytes; [1],2
same,Synergy isolates (%),T. mentagrophytes; [1],(33%)
same,Additivity # isolates,T. mentagrophytes; [2],1
same,Additivity isolates (%),T. mentagrophytes; [2],(17%)
same,No Interaction # isolates,T. mentagrophytes; [2],0
same,Synergy # isolates,T. mentagrophytes; [2],5
same,Synergy isolates (%),T. mentagrophytes; [2],(83%)
same,Additivity # isolates,E. floccosum; [3],4
same,Additivity isolates (%),E. floccosum; [3],(67%)
same,No Interaction # isolates,E. floccosum; [4],2
same,No Interaction isolates (%),E. floccosum; [4],(33%)
same,Synergy # isolates,"E. floccosum; Compound 8 in combination with fluconazole, FIC<0.5, n=6 isolates",0
same,Additivity # isolates,E. floccosum; [5],2
same,Additivity isolates (%),E. floccosum; [5],(33%)
same,No Interaction # isolates,"E. floccosum; Compound 8 in combination with itraconazole, 1.0<FIC≦4.0, n=6 isolates",0
same,Synergy # isolates,E. floccosum; [6],4
same,Synergy isolates (%),E. floccosum; [6],(67%)
same,Fold Reduction of Itraconazole MIC by Cpd 8,E. floccosum; one value per clinical isolate (Strain # 1-6),8x and 4x and 7.5x
same,Interpretation from ODDS,T. rubrum; strain MRL 476,No interaction
same,Interpretation from ODDS,T. rubrum; strain MRL 477,Additive
same,Interpretation from ODDS,T. rubrum; strain MRL 670,Synergistic
same,Interpretation from ODDS,T. rubrum; strain MRL 9482,Addivtive
same,Additivity # isolates,M. canis; 0.5≦FIC≦1.0,0*
same,No Interaction isolates (%),M. canis; 1.0<FIC≦4.0,(80%)*
same,Synergy # isolates,M. canis; FIC<0.5,1
same,Synergy isolates (%),M. canis; FIC<0.5,(20%)*

# Reference: patent US20120046331A1, “Antifungal Agents and Uses Thereof” (priority 2010, published 2012)
